Reference: US9579408B2, “PET/SPECT agents for applications in biomedical imaging” (Washington University, priority 2011, dated 2017)
Read-outs that look alike come from different tables or passages of the source.

Assays:
[1] = rats, n = 3
[2] = Quantitative biodistribution in wild-type (WT) mice; details: n = 3
Procedure: All bioassays were performed as described in earlier publications.

[3] = NanoSPECT/CT imaging in rat; format: in vivo; details: i.v. tail-vein, 30 min and 250 min post-injection
Procedure: (FIG. 4) and 250 min. (FIG. 5) post-injection. The arrows indicate heart uptake.

MDR1 Pgp (ABCB1) = details: mdr1a/1b (-/-) (dKO) mice, n = 3
[4] = rat, i.v. tail-vein, 60 min post-injection
Procedure: This Example illustrates MicroPET imaging of myocardial perfusion in a rat. In these experiments, ^68Ga-radiopharmaceutical 1B was injected intravenously into a rat tail-vein; MicroPET images were obtained 60 min. (FIG. 6) post-injection.

For `CC(C)Oc1cccc2c1[O][67Ga+][O]c1c(cccc1OC(C)C)C=NCC(C)(C)CNCCNCC(C)(C)CN=C2.[I-]` [Agent 1A, [ENBDMP-3-isopropoxy-PI-^67Ga]^+], the “Biodistribution, blood” value ([1]; 5 min P.I.) was 0.175 % ID/g, the “Biodistribution, blood” value ([1]; 15 min P.I.) was 0.041 % ID/g and the “Biodistribution, blood” value ([1]; 60 min P.I.) was 0.028 % ID/g. For the same compound, the “Biodistribution, blood” value ([1]; 120 min P.I.) was 0.012 % ID/g, the “Biodistribution, brain” value ([1]; 5 min P.I.) was 0.024 % ID/g and the “Biodistribution, brain” value ([1]; 15 min P.I.) was 0.015 % ID/g. For the same compound, the “Biodistribution, brain” value ([1]; 60 min P.I.) was 0.018 % ID/g, the “Biodistribution, brain” value ([1]; 120 min P.I.) was 0.016 % ID/g and the “Biodistribution, heart” value ([1]; 5 min P.I.) was 1.443 % ID/g. The “Biodistribution, heart” value ([1]; 15 min P.I.) was 1.306 % ID/g, the “Biodistribution, heart” value ([1]; 60 min P.I.) was 1.386 % ID/g and the “Biodistribution, heart” value ([1]; 120 min P.I.) was 1.516 % ID/g. For the same compound, the “Biodistribution, kidneys” value ([1]; 5 min P.I.) was 8.142 % ID/g, the “Biodistribution, kidneys” value ([1]; 15 min P.I.) was 5.168 % ID/g and the “Biodistribution, kidneys” value ([1]; 60 min P.I.) was 4.201 % ID/g. For the same compound, the “Biodistribution, kidneys” value ([1]; 120 min P.I.) was 3.543 % ID/g, the “Biodistribution, liver” value ([1]; 5 min P.I.) was 2.615 % ID/g and the “Biodistribution, liver” value ([1]; 15 min P.I.) was 0.657 % ID/g. The “Biodistribution, liver” value ([1]; 60 min P.I.) was 0.328 % ID/g, the “Biodistribution, liver” value ([1]; 120 min P.I.) was 0.203 % ID/g and the “Biodistribution, lung” value ([1]; 5 min P.I.) was 0.814 % ID/g. The “Biodistribution, lung” value ([1]; 15 min P.I.) was 0.626 % ID/g, the “Biodistribution, lung” value ([1]; 60 min P.I.) was 0.559 % ID/g and the “Biodistribution, lung” value ([1]; 120 min P.I.) was 0.591 % ID/g. The “Biodistribution, blood” value ([2]; 5 min P.I.) was 1.26 % ID/g, the “Biodistribution, blood” value ([2]; 15 min P.I.) was 0.29 % ID/g and the “Biodistribution, blood” value ([2]; 60 min P.I.) was 0.10 % ID/g. The “Biodistribution, blood” value ([2]; 120 min P.I.) was 0.07 % ID/g, the “Biodistribution, brain” value ([2]; 5 min P.I.) was 0.14 % ID/g and the “Biodistribution, brain” value ([2]; 15 min P.I.) was 0.12 % ID/g. The “Biodistribution, brain” value ([2]; 60 min P.I.) was 0.09 % ID/g, the “Biodistribution, brain” value ([2]; 120 min P.I.) was 0.06 % ID/g and the “Biodistribution, heart” value ([2]; 5 min P.I.) was 9.21 % ID/g. For the same compound, the “Biodistribution, heart” value ([2]; 15 min P.I.) was 8.37 % ID/g, the “Biodistribution, heart” value ([2]; 60 min P.I.) was 11.98 % ID/g and the “Biodistribution, heart” value ([2]; 120 min P.I.) was 9.81 % ID/g. The “Biodistribution, kidneys” value ([2]; 5 min P.I.) was 81.04 % ID/g, the “Biodistribution, kidneys” value ([2]; 15 min P.I.) was 83.46 % ID/g and the “Biodistribution, kidneys” value ([2]; 60 min P.I.) was 93.35 % ID/g. For the same compound, the “Biodistribution, kidneys” value ([2]; 120 min P.I.) was 67.91 % ID/g, the “Biodistribution, liver” value ([2]; 5 min P.I.) was 44.95 % ID/g and the “Biodistribution, liver” value ([2]; 15 min P.I.) was 33.80 % ID/g. The “Biodistribution, liver” value ([2]; 60 min P.I.) was 7.44 % ID/g, the “Biodistribution, liver” value ([2]; 120 min P.I.) was 2.90 % ID/g and the NanoSPECT/CT image finding [3] was “heart uptake”. The “Biodistribution, blood” value (MDR1 Pgp (ABCB1); 5 min P.I.) was 1.54 % ID/g, the “Biodistribution, blood” value (MDR1 Pgp (ABCB1); 15 min P.I.) was 0.64 % ID/g and the “Biodistribution, blood” value (MDR1 Pgp (ABCB1); 60 min P.I.) was 0.34 % ID/g. The “Biodistribution, blood” value (MDR1 Pgp (ABCB1); 120 min P.I.) was 0.19 % ID/g, the “Biodistribution, brain” value (MDR1 Pgp (ABCB1); 5 min P.I.) was 1.05 % ID/g and the “Biodistribution, brain” value (MDR1 Pgp (ABCB1); 15 min P.I.) was 0.65 % ID/g. For the same compound, the “Biodistribution, brain” value (MDR1 Pgp (ABCB1); 60 min P.I.) was 0.99 % ID/g, the “Biodistribution, brain” value (MDR1 Pgp (ABCB1); 120 min P.I.) was 0.96 % ID/g and the “Biodistribution, heart” value (MDR1 Pgp (ABCB1); 5 min P.I.) was 17.02 % ID/g. For the same compound, the “Biodistribution, heart” value (MDR1 Pgp (ABCB1); 15 min P.I.) was 10.59 % ID/g, the “Biodistribution, heart” value (MDR1 Pgp (ABCB1); 60 min P.I.) was 14.61 % ID/g and the “Biodistribution, heart” value (MDR1 Pgp (ABCB1); 120 min P.I.) was 20.29 % ID/g. For the same compound, the “Biodistribution, kidneys” value (MDR1 Pgp (ABCB1); 5 min P.I.) was 86.12 % ID/g, the “Biodistribution, kidneys” value (MDR1 Pgp (ABCB1); 15 min P.I.) was 84.19 % ID/g and the “Biodistribution, kidneys” value (MDR1 Pgp (ABCB1); 60 min P.I.) was 95.60 % ID/g. The “Biodistribution, kidneys” value (MDR1 Pgp (ABCB1); 120 min P.I.) was 115.23 % ID/g, the “Biodistribution, liver” value (MDR1 Pgp (ABCB1); 5 min P.I.) was 46.34 % ID/g and the “Biodistribution, liver” value (MDR1 Pgp (ABCB1); 15 min P.I.) was 46.45 % ID/g. For the same compound, the “Biodistribution, liver” value (MDR1 Pgp (ABCB1); 60 min P.I.) was 42.54 % ID/g and the “Biodistribution, liver” value (MDR1 Pgp (ABCB1); 120 min P.I.) was 29.82 % ID/g.

With `CC(C)Oc1cccc2c1[O][68Ga-3]1345[O]c6c(cccc6OC(C)C)C=[N+]1CC(C)(C)C[NH+]3CC[NH+]4CC(C)(C)C[N+]5=C2.[I-]` (stereo not drawn) [Agent 1B, [ENBDMP-3-isopropoxy-PI-^68Ga]^+] the MicroPET image finding [4] was “low level of signal from liver compared to the heart”.
